Legend:
Aurora A = Aurora A (Homo sapiens, UniProt O14965); assay: Kinase selectivity profiling; format: biochemical; details: 110-kinase panel
Aurora-A wild type = molecular target: T1, Aurora-A wild type (Homo sapiens, UniProt O14965); assay: Cellular inhibition of Aurora-A autophosphorylation at T288 in HCT116 cells; format: cell-based; details: 1.5 μM
T1 construct: expressed in transfected cells; host or cells: Hela cervical cancer cells; HCT116 human colon carcinoma cells
Method: Determination of cellular inhibition of Aurora-A (at T288) and histone H3 (at S10) has been described previously.[19] Briefly, cells were transfected with the Myc-tagged Aurora-A wild type or mutants and treated with different concentrations of the inhibitors for 2 h followed by lysis in LDS sample buffer. The samples were sonicated and boiled, and the proteins were separated by LDS–PAGE and transferred to nitrocellulose membranes. The upper and lower parts of the membranes were probed with anti-P-T288 (Aurora-A autophosphorylation/activation) and anti-P-histone H3 (Aurora-B substrate phosphorylation) antibodies, respectively. The blots were quantified and IC50 values determined using Graphpad Prism. Mammalian cell expression constructs encoding Aurora-A T217E, L215R, and R220K mutants with N-terminal Myc tags were produced using Quikchange mutagenesis (Stratagene).

Sequence of Aurora A (O14965 whole entry): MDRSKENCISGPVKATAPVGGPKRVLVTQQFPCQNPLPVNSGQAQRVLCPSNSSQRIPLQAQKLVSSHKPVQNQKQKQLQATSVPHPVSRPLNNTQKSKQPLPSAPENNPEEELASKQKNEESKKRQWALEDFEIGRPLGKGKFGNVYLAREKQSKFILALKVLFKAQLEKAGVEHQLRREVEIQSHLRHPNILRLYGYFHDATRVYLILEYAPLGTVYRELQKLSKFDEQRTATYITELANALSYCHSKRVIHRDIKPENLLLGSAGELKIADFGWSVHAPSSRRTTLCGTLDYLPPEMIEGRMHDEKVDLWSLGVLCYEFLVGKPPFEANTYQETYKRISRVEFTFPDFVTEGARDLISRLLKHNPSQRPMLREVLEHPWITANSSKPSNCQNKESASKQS
T1 sequence (O14965 whole entry): as above

Cc1nn(C)cc1-c1nc2c(Oc3ccc(C(=O)Nc4ccccc4)cc3)c(Cl)cnc2[nH]1 [compound 28c, 4-((6-Chloro-2-(1,3-dimethyl-1H-pyrazol-4-yl)-3H-imidazo[4,5-b]pyridin-7-yl)oxy)-N-phenylbenzamide]
remaining activity at 1 µM (Aurora A): 4%

Cc1nn(C)cc1-c1nc2c(Oc3ccc(C(=O)NC4CCC4)cc3)c(Cl)cnc2[nH]1 [compound 40f, 4-((6-Chloro-2-(1,3-dimethyl-1H-pyrazol-4-yl)-3H-imidazo[4,5-b]pyridin-7-yl)oxy)-N-cyclobutylbenzamide]
phosphorylation of Aurora-A (Aurora-A wild type): completely inhibited

Source: paper PMC3848336, “Aurora Isoform Selectivity: Design and Synthesis of Imidazo[4,5-b]pyridine Derivatives as Highly Selective Inhibitors of Aurora-A Kinase in Cells” (Journal of Medicinal Chemistry, 2013)
